Paper PMC8621857, “Structural Insights into the Azole Resistance of the Candida albicans Darlington Strain Using Saccharomyces cerevisiae Lanosterol 14α-Demethylase as a Surrogate” (Journal of Fungi, 2021)
Read-outs that look alike come from different tables or passages of the source.

Key:
[1] = system: C. albicans Darlington strain; assay: Agarose disk diffusion assay, Darlington strain; format: cell-based, Candida albicans; conditions: for effect of Mdr1 inhibitor MCC1189 on azole susceptibility: MCC1189 at 6 µM in the assay medium; for effect of Cdr1p inhibitor RC21v3 on azole susceptibility: RC21v3 at 6 µM in the assay medium; for agarose diffusion susceptibility: no efflux pump inhibitor
Experimental: (§1) Agarose diffusion assays were carried out as described previously using the Darlington strain of C. albicans (Pfizer Ltd., Sandwich, UK) and the control C. albicans database strain SC5314, which is not resistant to azoles. The Cdr1p-specific inhibitor RC21v3 and the CaMdr1p-specific inhibitor MCC1189 (MicroCombiChem, Wiesbaden, Germany), included in the assay medium at 6 µM, were used to investigate the contribution of efflux pumps to azole resistance in the Darlington strain [49, 50, 51].

[2] = target: wild-type and Y140F/H mutants of ScLDM6×His; parameters: method as in earlier work; conditions: no significant differences, ref 5 (supplement; Sagatova et al. 2016); cited from earlier work
[3] = system: C. albicans strain SC5314; assay: Agarose disk diffusion assay, control strain SC5314; format: cell-based, Candida albicans; conditions: for effect of Cdr1p inhibitor RC21v3 on azole susceptibility: SC5314, RC21v3 at 6 µM in the assay medium
Experimental: as §1

[4] = system: S. cerevisiae strain AD3Δ ScErg11 I471T expressing ScLDM6×His I471T; assay: Broth microdilution drug susceptibility assay (MIC80), strain AD3Δ ScErg11 I471T; format: cell-based, Saccharomyces cerevisiae; conditions: for MIC80: Saccharomyces cerevisiae, 48 h, 30 °C, pH 6.8, mean (± SEM), n = 3; for MIC80 / MIC80/Relative Amount of ScLDM6×His / fold-resistance based on the relative amount of recombinant enzyme compared with strain AD3Δ: strain I471T; for increased susceptibility compared with AD3Δ: strain AD3Δ ScErg11 I471T, not corrected for expression; for MIC80/Relative Amount of ScLDM6×His / fold-resistance based on the relative amount of recombinant enzyme compared with strain AD3Δ: relative expression 0.51
Experimental: (§2) The native ScERG11 gene in yeast cells containing mutant ScERG11-6×His constructs in the PDR5 locus was disrupted by homologous recombination with a cassette encoding the His1 selection marker and sequences homologous with the regions bordering the endogenous ScERG11 ORF to create strains AD3Δ ScErg11 Y140H, AD3Δ ScErg11 I471T and AD3Δ ScErg11Y140H I471T [43]. Transformants were selected on SD-His agar plates incubated at 30 °C for 48–72 h. Genomic DNA was extracted, and DNA sequencing as above was used to confirm deletion of the native ERG11. Strain AD3Δ ScErg11 (denoted as AD3Δ), which overexpresses wild-type ScLDM6×His from the PDR5 locus and has the native ScERG11 gene disrupted, was used as a control strain [43].
(§3) Azole susceptibility was measured as the mean drug concentration required to inhibit 80% of yeast growth (MIC80) compared to a non-drug control, using a standard broth microdilution assay. Serial dilutions of short- (FLC and VCZ), medium- (VT-1161), and long-tailed (ITC and PCZ) azole drugs, and the control drugs micafungin (MCF) and amphotericin B (AMB), were prepared in a 96-well microtiter plate in complete synthetic media lacking uracil, buffered to pH 6.8 [34]. Control and test cells were seeded at an optical density of 600 nm (OD600) of 0.005 (~1.5 × 10^4 colony forming units). After incubation for 48 h at 30 °C with constant agitation (200 rpm), the OD600 nm of each well was measured using a Synergy 2 multi-mode plate reader (BioTek Instruments, Winooski, VT, USA). The experiment was repeated three times (a total of nine measurements for the response of each strain to each drug). GraphPad Prism 5.0 software was used for statistical analysis, using a one-way analysis of variance with a Bonferroni post-hoc test. The statistical significance of comparisons was accepted when p < 0.05.

[5] = system: S. cerevisiae strain AD3Δ ScErg11 Y140H I471T expressing ScLDM6×His Y140H I471T; assay: Broth microdilution drug susceptibility assay (MIC80), strain AD3Δ ScErg11 Y140H I471T; format: cell-based, Saccharomyces cerevisiae; conditions: for MIC: Saccharomyces cerevisiae, strain Y140H + I471T, 48 h, 30 °C, pH 6.8, mean (± SEM), n = 3; for MIC80/Relative Amount of ScLDM6×His / fold-resistance based on the relative amount of recombinant enzyme compared with strain AD3Δ: strain Y140H+I471T, relative expression 0.41
Experimental: as §2, §3

[6] = system: S. cerevisiae strain AD3Δ ScErg11 (AD3Δ) overexpressing wild-type ScLDM6×His; assay: Broth microdilution drug susceptibility assay (MIC80), strain AD3Δ ScErg11; format: cell-based, Saccharomyces cerevisiae; conditions: strain AD3Δ; for MIC80: Saccharomyces cerevisiae, 48 h, 30 °C, pH 6.8, mean (± SEM), n = 3, read-out: MIC80; for MIC80/Relative Amount of ScLDM6×His: relative expression 1
Experimental: as §2, §3

[7] = system: S. cerevisiae strain AD3Δ ScErg11 Y140H expressing ScLDM6×His Y140H; assay: Broth microdilution drug susceptibility assay (MIC80), strain AD3Δ ScErg11 Y140H; format: cell-based, Saccharomyces cerevisiae; conditions: for MIC80: Saccharomyces cerevisiae, 48 h, 30 °C, pH 6.8, mean (± SEM), n = 3; for MIC80 / MIC80/Relative Amount of ScLDM6×His / fold-resistance based on the relative amount of recombinant enzyme compared with strain AD3Δ: strain Y140H; for MIC80/Relative Amount of ScLDM6×His / fold-resistance based on the relative amount of recombinant enzyme compared with strain AD3Δ: relative expression 0.74
Experimental: as §2, §3

Row | Compound | effect of Mdr1 inhibitor MCC1189 on azole susceptibility [1] | effect of Cdr1p inhibitor RC21v3 on azole susceptibility [1] | agarose diffusion susceptibility [1] | Kd [2] | effect of Cdr1p inhibitor RC21v3 on azole susceptibility [3] | MIC80 [4] | increased susceptibility compared with AD3Δ [4] | MIC80/Relative Amount of ScLDM6×His [4] | fold-resistance based on the relative amount of recombinant enzyme compared with strain AD3Δ [4] | MIC [5] | MIC80/Relative Amount of ScLDM6×His [5] | fold-resistance based on the relative amount of recombinant enzyme compared with strain AD3Δ [5] | MIC80 [6] | MIC80/Relative Amount of ScLDM6×His [6] | MIC80 [7] | MIC80/Relative Amount of ScLDM6×His [7] | fold-resistance based on the relative amount of recombinant enzyme compared with strain AD3Δ [7] | other results
1 | CCC(C)n1ncn(-c2ccc(N3CCN(c4ccc(OCC5COC(Cn6cncn6)(c6ccc(Cl)cc6Cl)O5)cc4)CC3)cc2)c1=O (stereo not shown) [ITC, itraconazole] | no effect on susceptibility | increased susceptibility | resistant | ~500 nM | increased susceptibility | 0.102 µM | 1.4 fold | 0.2 µM | 1.4 × | 0.108 µM | 0.263 µM | 1.8 × | 0.143 µM | 0.143 µM | 0.112 µM | 0.151 µM | 1.1 × | effect of Mdr1 inhibitor MCC1189 on azole susceptibility [3]: no effect on susceptibility; resistance conferred, relative expression taken into account ([5]; ScLDM6×His Y140H I471T (0.41 of wild-type) vs AD3Δ): 1.8 fold; susceptibility compared with AD3Δ cells ([7]; cells overexpressing ScLDM6×His Y140H, not corrected for expression): slightly increased susceptibility
2 | C[C@@H](c1ncncc1F)[C@](O)(Cn1cncn1)c1ccc(F)cc1F [VCZ, voriconazole] | did not alter the susceptibility | did not alter the susceptibility | resistant | ~500 nM | did not alter the susceptibility | 0.074 µM | 1.2 fold | 0.145 µM | 1.6 × | 0.25 µM | 0.609 µM | 6.5 × | 0.0933 µM | 0.0933 µM | 0.164 µM | 0.221 µM | 2.4 × | effect of Mdr1 inhibitor MCC1189 on azole susceptibility ([3]; SC5314, MCC1189 at 6 µM in the assay medium): did not alter the susceptibility; agarose diffusion susceptibility ([3]; SC5314, no efflux pump inhibitor): susceptible; MIC80 higher than AD3Δ ScErg11 cells ([5]; strain AD3Δ ScErg11 Y140H I471T, not corrected for expression, p < 0.001): approximately 3 fold; MIC80 higher than cells overexpressing ScLDM6×His Y140H ([5]; strain AD3Δ ScErg11 Y140H I471T, p < 0.001): 1.5 fold; resistance conferred, relative amount of recombinant ScLDM6×His taken into account ([7]; ScLDM6×His Y140H vs AD3Δ): 2.4 fold; MIC80 higher than strain AD3Δ ScErg11 ([7]; strain AD3Δ ScErg11 Y140H vs AD3Δ, not corrected for expression, p < 0.001): ~ 2 fold
